# How the values were obtained:
# Alternaria solani = assay: in vivo preventive test on Alternaria test (tomatoes); conditions: single active compound
# Excerpt: (§1) A synergistic effect of fungicides is always present when the fungicidal activity of the active compound combinations exceeds the total of the activities of the active compounds when applied individually. The expected activity for a given combination of two active compounds can be calculated as follows (cf. Colby, S. R., “Calculating Synergistic and Antagonistic Responses of Herbicide Combinations”, Weeds 1967, 15, 20-22):
# (§2) • X is the efficacy when active compound A is applied at an application rate of m ppm (or g/ha), • Y is the efficacy when active compound B is applied at an application rate of n ppm (or g/ha), • E is the efficacy when the active compounds A and B are applied at application rates of m and n ppm (or g/ha), respectively, and then
# (§3) The degree of efficacy, expressed in % is denoted. 0% means an efficacy which corresponds to that of the control while an efficacy of 100% means that no disease is observed.
# Example: In Vivo Preventive Test on Alternaria Test (Tomatoes)
# (§4) • Solvent: 24.5 parts by weight of acetone • 24.5 parts by weight of dimethylacetamide • Emulsifier: 1 part by weight of alkylaryl polyglycol ether
# (§5) To produce a suitable preparation of active compound, 1 part by weight of active compound is mixed with the stated amounts of solvent and emulsifier, and the concentrate is diluted with water to the desired concentration.
# To test for preventive activity, young plants are sprayed with the preparation of active compound at the stated rate of application. After the spray coating has dried on, the plants are inoculated with an aqueous spore suspension of Alternaria solani. The plants are then placed in an incubation cabinet at approximately 20° C. and a relative atmospheric humidity of 100%.
# The test is evaluated 3 days after the inoculation. 0% means an efficacy which corresponds to that of the untreated control while an efficacy of 100% means that no disease is observed.
# Phakopsora pachyrhizi = assay: in vivo preventive test on Phakopsora test (soybeans); conditions: single active compound
# Excerpt: as §1, §2, §3
# Example: In Vivo Preventive Test on Phakopsora Test (Soybeans)
# as §4, §5
# To test for preventive activity, young plants are sprayed with the preparation of active compound at the stated rate of application. After the spray coating has dried on, the plants are inoculated with an aqueous spore suspension of the causal agent of soybean rust (Phakopsora pachyrhizi) and stay for 24 h without light in an incubation cabinet at approximately 24° C. and a relative atmospheric humidity of 95%.
# The plants remain in the incubation cabinet at approximately 24° C. and a relative atmospheric humidity of approximately 80% and a day/night interval of 12 h.
# The test is evaluated 7 days after the inoculation. 0% means an efficacy which corresponds to that of the untreated control, while an efficacy of 100% means that no disease is observed.
# Botrytis cinerea = assay: in vivo preventive test on Botrytis test (beans); conditions: single active compound, the 3rd table
# Excerpt: as §1, §2, §3
# Example: In Vivo Preventive Test on Botrytis Test (Beans)
# as §4, §5
# To test for preventive activity, young plants are sprayed with the preparation of active compound. After the spray coating has dried on, 2 small pieces of agar covered with growth of Botrytis cinerea are placed on each leaf. The inoculated plants are placed in a darkened chamber at 20° C. and a relative atmospheric humidity of 100%.
# 2 days after the inoculation, the size of the lesions on the leaves is evaluated. 0% means an efficacy which corresponds to that of the untreated control, while an efficacy of 100% means that no disease is observed.
# Venturia inaequalis = assay: in vivo preventive test on Venturia test (apples); conditions: single active compound
# Excerpt: as §1, §2, §3
# Example: In Vivo Preventive Test on Venturia Test (Apples)
# as §4, §5
# To test for preventive activity, young plants are sprayed with the preparation of active compound at the stated rate of application. After the spray coating has dried on, the plants are inoculated with an aqueous conidia suspension of the causal agent of apple scab (Venturia inaequalis) and then remain for 1 day in an incubation cabinet at approximately 20° C. and a relative atmospheric humidity of 100%.
# The plants are then placed in a greenhouse at approximately 21° C. and a relative atmospheric humidity of approximately 90%.
# (§6) The test is evaluated 10 days after the inoculation. 0% means an efficacy which corresponds to that of the untreated control, while an efficacy of 100% means that no disease is observed.
# Uromyces appendiculatus = assay: in vivo preventive test on Uromyces test (beans); conditions: single active compound, the 7th table
# Excerpt: as §1, §2, §3
# Example: In Vivo Preventive Test on Uromyces Test (Beans)
# as §4
# To produce a suitable preparation of active compound, 1 part by weight of active compound is mixed with the stated amounts of solvent and emulsifier, and the concentrate is diluted with water to the desired concentration. To test for preventive activity, young plants are sprayed with the preparation of active compound at the stated rate of application. After the spray coating has dried on, the plants are inoculated with an aqueous spore suspension of the causal agent of bean rust (Uromyces appendiculatus) and then remain for 1 day in an incubation cabinet at approximately 20° C. and a relative atmospheric humidity of 100%. The plants are then placed in a greenhouse at approximately 21° C. and a relative atmospheric humidity of approximately 90%.
# as §6
smiles,measurement,setting,value
"CO/C=C(/C(=O)OC)c1ccccc1Oc1cc(Oc2ccccc2C#N)ncn1 [1.3, azoxystrobin]",Efficacy in % found,"Alternaria solani; 0.25 ppm a.i., the 1st table",45%
same,Efficacy in % found,"Alternaria solani; 0.25 ppm a.i., the 2nd table",35%
same,Efficacy in % found,"Alternaria solani; 0.5 ppm a.i., the 1st table",35%
same,Efficacy in % found,"Alternaria solani; 0.5 ppm a.i., the 2nd table",8%
same,Efficacy in % found,"Alternaria solani; 1 ppm a.i., the 1st table",65%
same,Efficacy in % found,"Alternaria solani; 1 ppm a.i., the 2nd table",15%
same,Efficacy in % found,"Phakopsora pachyrhizi; 0.25 ppm a.i., the 4th table",0%
same,Efficacy in % found,"Phakopsora pachyrhizi; 0.25 ppm a.i., the 5th table",16%
same,Efficacy in % found,"Phakopsora pachyrhizi; 0.5 ppm a.i., the 4th table",18%
same,Efficacy in % found,"Phakopsora pachyrhizi; 0.5 ppm a.i., the 5th table",41%
same,Efficacy in % found,Botrytis cinerea; 0.25 ppm a.i.,30%
same,Efficacy in % found,Botrytis cinerea; 0.5 ppm a.i.,15%
same,Efficacy in % found,"Venturia inaequalis; 0.5 ppm a.i., the 8th table",25%
same,Efficacy in % found,"Venturia inaequalis; 0.5 ppm a.i., the 9th table",88%
same,Efficacy in % found,"Venturia inaequalis; 1 ppm a.i., the 8th table",30%
same,Efficacy in % found,"Venturia inaequalis; 1 ppm a.i., the 9th table",94%
"CO/C=C(/C(=O)OC)c1ccccc1COc1cccc(C(F)(F)F)n1 [1.16, picoxystrobin]",Efficacy in % found,"Alternaria solani; 0.25 ppm a.i., the 1st table",30%
same,Efficacy in % found,"Alternaria solani; 0.25 ppm a.i., the 2nd table",8%
same,Efficacy in % found,"Alternaria solani; 0.5 ppm a.i., the 1st table",30%
same,Efficacy in % found,"Alternaria solani; 0.5 ppm a.i., the 2nd table",8%
same,Efficacy in % found,"Alternaria solani; 1 ppm a.i., the 1st table",50%
same,Efficacy in % found,"Alternaria solani; 1 ppm a.i., the 2nd table",35%
same,Efficacy in % found,"Phakopsora pachyrhizi; 0.25 ppm a.i., the 4th table",0%
same,Efficacy in % found,"Phakopsora pachyrhizi; 0.25 ppm a.i., the 5th table",0%
same,Efficacy in % found,"Phakopsora pachyrhizi; 0.5 ppm a.i., the 4th table",24%
same,Efficacy in % found,"Phakopsora pachyrhizi; 0.5 ppm a.i., the 5th table",0%
same,Efficacy in % found,"Phakopsora pachyrhizi; 1 ppm a.i., the 4th table",9%
same,Efficacy in % found,"Phakopsora pachyrhizi; 1 ppm a.i., the 5th table",62%
same,Efficacy in % found,Botrytis cinerea; 0.25 ppm a.i.,40%
same,Efficacy in % found,Botrytis cinerea; 0.5 ppm a.i.,40%
same,Efficacy in % found,"Venturia inaequalis; 0.5 ppm a.i., the 9th table",13%
"CON=C(C(=O)OC)c1ccccc1CON=C(C)c1cccc(C(F)(F)F)c1 [1.22, trifloxystrobin]",Efficacy in % found,"Alternaria solani; 0.25 ppm a.i., the 1st table",8%
same,Efficacy in % found,"Alternaria solani; 0.5 ppm a.i., the 1st table",24%
same,Efficacy in % found,"Alternaria solani; 1 ppm a.i., the 1st table",35%
same,Efficacy in % found,"Phakopsora pachyrhizi; 0.25 ppm a.i., the 6th table",0%
same,Efficacy in % found,"Phakopsora pachyrhizi; 0.5 ppm a.i., the 6th table",0%
same,Efficacy in % found,"Phakopsora pachyrhizi; 1 ppm a.i., the 6th table",0%
same,Efficacy in % found,"Venturia inaequalis; 0.25 ppm a.i., the 10th table",0%
same,Efficacy in % found,"Venturia inaequalis; 0.5 ppm a.i., the 10th table",5%
same,Efficacy in % found,"Venturia inaequalis; 1 ppm a.i., the 10th table",5%
same,Efficacy in % found,Uromyces appendiculatus; 0.25 ppm a.i.,0%
same,Efficacy in % found,Uromyces appendiculatus; 1 ppm a.i.,0%
"CCC1CC(C)(C)c2cccc(NC(=O)c3cccnc3C(F)F)c21 (stereo not drawn) [(I-3), 2-(difluoromethyl)-N-(3-ethyl-1,1-dimethyl-2,3-dihydro-1H-inden-4-yl)nicotinamide]",Efficacy in % found,"Phakopsora pachyrhizi; 0.5 ppm a.i., the 6th table",28%
same,Efficacy in % found,"Phakopsora pachyrhizi; 1 ppm a.i., the 6th table",38%
same,Efficacy in % found,"Venturia inaequalis; 0.25 ppm a.i., the 8th table",10%
same,Efficacy in % found,"Venturia inaequalis; 1 ppm a.i., the 8th table",13%
same,Efficacy in % found,"Venturia inaequalis; 1 ppm a.i., the 10th table",15%
"CC[C@@H]1CC(C)(C)c2cccc(NC(=O)c3cccnc3C(F)F)c21 [(I-4), 2-(difluoromethyl)-N-[(3R)-3-ethyl-1,1-dimethyl-2,3-dihydro-1H-inden-4-yl]nicotinamide]",Efficacy in % found,"Phakopsora pachyrhizi; 0.5 ppm a.i., the 4th table",87%
same,Efficacy in % found,"Phakopsora pachyrhizi; 1 ppm a.i., the 4th table",87%
same,Efficacy in % found,Botrytis cinerea; 0.5 ppm a.i.,15%
same,Efficacy in % found,"Venturia inaequalis; 0.25 ppm a.i., the 8th table",10%
same,Efficacy in % found,"Venturia inaequalis; 1 ppm a.i., the 10th table",37%
"CCCC1CC(C)(C)c2cccc(NC(=O)c3cccnc3C(F)F)c21 (stereo not drawn) [(I-5), 2-(difluoromethyl)-N-(1,1-dimethyl-3-propyl-2,3-dihydro-1H-inden-4-yl)nicotinamide]",Efficacy in % found,"Venturia inaequalis; 1 ppm a.i., the 10th table",10%
same,Efficacy in % found,Uromyces appendiculatus; 0.25 ppm a.i.,93%
"CCC[C@@H]1CC(C)(C)c2cccc(NC(=O)c3cccnc3C(F)F)c21 [(I-6), 2-(difluoromethyl)-N-[(3R)-1,1-dimethyl-3-propyl-2,3-dihydro-1H-inden-4-yl]nicotinamide]",Efficacy in % found,"Alternaria solani; 0.5 ppm a.i., the 1st table",30%
same,Efficacy in % found,"Phakopsora pachyrhizi; 0.25 ppm a.i., the 5th table",95%
same,Efficacy in % found,"Phakopsora pachyrhizi; 1 ppm a.i., the 5th table",93%

# Reference: patent US20170325452A1, “Active compound combinations” (BAYER CROPSCIENCE AKTIENGESELLSCHAFT, priority 2014, published 2017)
